Measured values from patent US20250255966A1, “CORN PHYTOGLYCOGEN FORMULATIONS FOR STABILIZING PROTEINS” (UNIVERSITY OF FLORIDA RESEARCH FOUNDATION, INCORPORATED, priority 2022, published 2025).

System: GFP
Test: GFP preservation, comparison with common excipients
Format: biochemical
Details: after 10 cycles of lyophilization, excipient 20 mg/mL, 4 μM GFP
Method: As a model protein, 4 μM GFP was used. Each excipient was prepared at a concentration of 20 mg/mL as described above. Each excipient was mixed with GFP at a 1:1 (v/v) ratio. PBS without excipient was used as a control group. Samples were lyophilized, activity was measured, and relative activity was calculated using the same methods as above.

| Molecule | GFP stabilizing activity vs BSA | effectiveness as GFP/protein stabilizer |
| --- | --- | --- |
| OC[C@H]1O[C@@](CO)(O[C@H]2O[C@H](CO)[C@@H](O)[C@H](O)[C@H]2O)[C@@H](O)[C@@H]1O [sucrose] | comparable | – |
| OC[C@H]1O[C@H](O[C@H]2O[C@H](CO)[C@@H](O)[C@H](O)[C@H]2O)[C@H](O)[C@@H](O)[C@@H]1O [trehalose] | comparable | – |
| polyethylene glycol [PEG] | – | not an effective GFP stabilizer |
